“And” between values parts separate entries of the source, which are not always exact repeats. Equal entries are not always repeated. Toxic doses and inconclusive results are not listed. The calls were made as follows: active = survival T/C of 150% or more; inactive = T/C below 125% in these data.
Tested on: P388 leukemia ip, CD2F1 mice, survival T/C
Assay: NCI In Vivo Anticancer Drug Screen. Data for tumor model P388 Leukemia (intraperitoneal) in CD2F1 (CDF1) mice
Conditions: endpoint: median survival time, higher = longer survival
In short: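 Mice carrying the transplanted tumor received test compound or vehicle. Survival was recorded in each group, and the value is the treated-group measurement divided by that of the vehicle-treated control group.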

[1] = dose: 50.0 mg/kg/injection, schedule: Q01DX005 (ip), vehicle: saline with Tween-80
[2] = dose: 100.0 mg/kg/injection, schedule: Q01DX005 (ip), vehicle: saline with Tween-80
[3] = dose: 200.0 mg/kg/injection, schedule: Q01DX005 (ip), vehicle: saline with Tween-80
[4] = dose: 12.5 mg/kg/injection, schedule: Q01DX009 (ip), vehicle: Klucel (hydroxypropylcellulose) (HPC)
[5] = dose: 60.0 mg/kg/injection, schedule: Q01DX005 (ip), vehicle: saline with Tween-80
[6] = dose: 120.0 mg/kg/injection, schedule: Q01DX005 (ip), vehicle: saline with Tween-80
[7] = dose: 6.25 mg/kg/injection, schedule: Q01DX009 (ip), vehicle: saline
[8] = dose: 50.0 mg/kg/injection, schedule: Q01DX009 (ip), vehicle: saline with Tween-80
[9] = dose: 100.0 mg/kg/injection, schedule: Q01DX009 (ip), vehicle: saline with Tween-80
[10] = dose: 200.0 mg/kg/injection, schedule: Q01DX009 (ip), vehicle: saline with Tween-80
[11] = dose: 50.0 mg/kg/injection, schedule: Q01DX009 (ip), vehicle: saline
[12] = dose: 100.0 mg/kg/injection, schedule: Q01DX009 (ip), vehicle: saline
[13] = dose: 200.0 mg/kg/injection, schedule: Q01DX009 (ip), vehicle: saline
[14] = dose: 50.0 mg/kg/injection, schedule: Q01DX005 (ip), vehicle: Klucel (hydroxypropylcellulose) (HPC)
[15] = dose: 100.0 mg/kg/injection, schedule: Q01DX005 (ip), vehicle: Klucel (hydroxypropylcellulose) (HPC)
[16] = dose: 200.0 mg/kg/injection, schedule: Q01DX005 (ip), vehicle: Klucel (hydroxypropylcellulose) (HPC)
[17] = dose: 25.0 mg/kg/injection, schedule: Q01DX009 (ip), vehicle: saline with Tween-80
[18] = dose: 400.0 mg/kg/injection, schedule: Q01DX009 (ip), vehicle: saline with Tween-80

Measured: T/C

O=C1CSC(c2c(F)cccc2F)N1c1nncs1 (stereo not drawn)
inactive: [1] 98 % of control | [2] 100 % of control | [3] 98 % of control

C1CCC2[N-]CC3CCCCC3[N-]CC3CCCCC3[N-]CC3CCCCC3[N-]CC2C1.[Cu] (stereo not drawn)
inactive: dose: 0.39 mg/kg/injection, schedule: Q01DX009 (ip), vehicle: saline 105 % of control | dose: 0.78 mg/kg/injection, schedule: Q01DX009 (ip), vehicle: Klucel (hydroxypropylcellulose) (HPC) 121 % of control | dose: 0.78 mg/kg/injection, schedule: Q01DX009 (ip), vehicle: saline 123 % of control | dose: 1.56 mg/kg/injection, schedule: Q01DX009 (ip), vehicle: saline 123 % of control | dose: 1.56 mg/kg/injection, schedule: Q01DX009 (oral), vehicle: Klucel (hydroxypropylcellulose) (HPC) 89 % of control | dose: 3.12 mg/kg/injection, schedule: Q01DX009 (oral), vehicle: Klucel (hydroxypropylcellulose) (HPC) 99 % of control | dose: 6.25 mg/kg/injection, schedule: Q01DX009 (oral), vehicle: Klucel (hydroxypropylcellulose) (HPC) 99 % of control | [4] 119 % of control | dose: 12.5 mg/kg/injection, schedule: Q01DX009 (oral), vehicle: Klucel (hydroxypropylcellulose) (HPC) 93 % of control and 98 % of control | dose: 25.0 mg/kg/injection, schedule: Q01DX009 (oral), vehicle: Klucel (hydroxypropylcellulose) (HPC) 106 % of control and 91 % of control | dose: 50.0 mg/kg/injection, schedule: Q01DX009 (oral), vehicle: Klucel (hydroxypropylcellulose) (HPC) 93 % of control | dose: 100.0 mg/kg/injection, schedule: Q01DX009 (oral), vehicle: Klucel (hydroxypropylcellulose) (HPC) 93 % of control and 98 % of control | dose: 200.0 mg/kg/injection, schedule: Q01DX009 (oral), vehicle: Klucel (hydroxypropylcellulose) (HPC) 88 % of control

NCCCn1[nH]c(=O)c2cccnc2c1=O
inactive: [5] 101 % of control | [6] 100 % of control | dose: 240.0 mg/kg/injection, schedule: Q01DX005 (ip), vehicle: saline with Tween-80 95 % of control

C[N+](c1ccc(Cl)cc1)=S(C)(C)=O
inactive: [7] 99 % of control | dose: 12.5 mg/kg/injection, schedule: Q01DX009 (ip), vehicle: saline 94 % of control | dose: 25.0 mg/kg/injection, schedule: Q01DX009 (ip), vehicle: saline 98 % of control

CCN(CC)Cc1cc(N=Nc2ccc3c(c2)c2ccccc2n3CC)c2ccccc2c1O
inactive: [8] 86 % of control | [9] 93 % of control | [10] 93 % of control

CCOc1ccc2c(c1)C(C)=CC(C)(C)N2
inactive: dose: 100.0 mg/kg/injection, schedule: Q04DX003 (ip), vehicle: Klucel (hydroxypropylcellulose) (HPC) 99 % of control | dose: 200.0 mg/kg/injection, schedule: Q04DX003 (ip), vehicle: Klucel (hydroxypropylcellulose) (HPC) 102 % of control | dose: 400.0 mg/kg/injection, schedule: Q04DX003 (ip), vehicle: Klucel (hydroxypropylcellulose) (HPC) 102 % of control

CC(C)(CN1CCCN(CC(C)(C)C(=O)O)C1=O)C(=O)O
inactive: [11] 93 % of control | [12] 94 % of control | [13] 98 % of control

CCCCCCCCCC(O)C(O)C1CCC(C2CCC(C(O)CCCCCCCCCCCCC3=CC(C)OC3=O)O2)O1 (stereo not drawn)
inactive: dose: 0.35 mg/kg/injection, schedule: Q01DX005 (ip), vehicle: Klucel (hydroxypropylcellulose) (HPC) 103 % of control and 97 % of control | dose: 0.7 mg/kg/injection, schedule: Q01DX005 (ip), vehicle: Klucel (hydroxypropylcellulose) (HPC) 100 % of control and 99 % of control | dose: 1.4 mg/kg/injection, schedule: Q01DX005 (ip), vehicle: Klucel (hydroxypropylcellulose) (HPC) 112 % of control and 100 % of control | dose: 2.8 mg/kg/injection, schedule: Q01DX005 (ip), vehicle: Klucel (hydroxypropylcellulose) (HPC) 106 % of control and 113 % of control

CCOC(=O)c1no[n+]([O-])c1C(=O)OCC
inactive: dose: 6.25 mg/kg/injection, schedule: Q01DX009 (ip), vehicle: Klucel (hydroxypropylcellulose) (HPC) 103 % of control | [4] 105 % of control | dose: 25.0 mg/kg/injection, schedule: Q01DX009 (ip), vehicle: Klucel (hydroxypropylcellulose) (HPC) 101 % of control | dose: 50.0 mg/kg/injection, schedule: Q01DX009 (ip), vehicle: Klucel (hydroxypropylcellulose) (HPC) 86 % of control

Cn1ccn(CCCCCCn2ccn(C)c2=S)c1=S
inactive: dose: 3.12 mg/kg/injection, schedule: Q01DX009 (ip), vehicle: saline 103 % of control | [7] 96 % of control | dose: 12.5 mg/kg/injection, schedule: Q01DX009 (ip), vehicle: suspension in saline 92 % of control

COc1cccc(C(=O)O)c1C(=O)O
inactive: dose: 25.0 mg/kg/injection, schedule: Q01DX009 (ip), vehicle: other 97 % of control | dose: 50.0 mg/kg/injection, schedule: Q01DX009 (ip), vehicle: other 100 % of control | dose: 100.0 mg/kg/injection, schedule: Q01DX009 (ip), vehicle: other 99 % of control | dose: 200.0 mg/kg/injection, schedule: Q01DX009 (ip), vehicle: other 106 % of control | dose: 400.0 mg/kg/injection, schedule: Q01DX009 (ip), vehicle: other 103 % of control

CCN(CC)CCn1ncc(Sc2cc([N+](=O)[O-])ccc2N)c(Cl)c1=O
inactive: [5] 100 % of control | [6] 89 % of control

COc1cc2c(c3oc4c(O)cccc4c(=O)c13)CC(C(C)(O)CCl)O2 (stereo not drawn)
inactive: dose: 2.0 mg/kg/injection, schedule: Q01DX009 (ip), vehicle: saline + alcohol 113 % of control | dose: 4.0 mg/kg/injection, schedule: Q01DX009 (ip), vehicle: saline + alcohol 112 % of control

CC(C)OC(CCCl)c1ccc(Cl)cc1 (stereo not drawn)
inactive: dose: 100.0 mg/kg/injection, schedule: Q04DX003 (ip), vehicle: saline with Tween-80 109 % of control | dose: 200.0 mg/kg/injection, schedule: Q04DX003 (ip), vehicle: saline with Tween-80 100 % of control

CC1(C)CC(=O)C(C(c2cccc([N+](=O)[O-])c2)C2C(=O)CC(C)(C)CC2=O)C(=O)C1
inactive: [14] 96 % of control | [15] 98 % of control | [16] 102 % of control

Cc1ccc(S(=O)(=O)C2(NC(=O)c3ccc(Cl)cc3)CC2)cc1
inactive: dose: 30.0 mg/kg/injection, schedule: Q01DX005 (ip), vehicle: Klucel (hydroxypropylcellulose) (HPC) 92 % of control and 94 % of control | dose: 60.0 mg/kg/injection, schedule: Q01DX005 (ip), vehicle: Klucel (hydroxypropylcellulose) (HPC) 93 % of control | dose: 120.0 mg/kg/injection, schedule: Q01DX005 (ip), vehicle: Klucel (hydroxypropylcellulose) (HPC) 86 % of control and 91 % of control and 92 % of control

CCN(CC)c1ccc(NC2=CC(=O)C(Nc3ccc(N(CC)CC)cc3)=CC2=O)cc1
inactive: [1] 91 % of control | [2] 89 % of control | [3] 89 % of control

O=C(CNC(=O)c1ccccc1)N/N=C/c1ccc2c(c1)OCO2
inactive: [17] 100 % of control | [18] 96 % of control

CC(C)C(C(=O)O)N(C(=O)CN)C(=O)Cc1ccccc1 (stereo not drawn)
inactive: [8] 95 % of control | [9] 93 % of control | [10] 93 % of control

[Cu+2].[O-]c1ccc(Br)c2cccnc12.[O-]c1ccc(Br)c2cccnc12
inactive: dose: 12.5 mg/kg/injection, schedule: Q01DX009 (ip), vehicle: saline with Tween-80 104 % of control | [17] 100 % of control | dose: 33.0 mg/kg/injection, schedule: Q04DX003 (ip), vehicle: saline with Tween-80 90 % of control | [8] 104 % of control

CCCCCCN(C)C12CN3CN(CN(C3)C1)C2
inactive: [11] 102 % of control | [12] 102 % of control | [13] 102 % of control

COC(=O)C(Cl)c1ccccc1 (stereo not drawn)
inactive: [9] 104 % of control | [10] 113 % of control | [18] 100 % of control

Cc1ccc(S(=O)(=O)NC(=O)N2CCc3ccccc32)cc1
inactive: [14] 105 % of control | [15] 105 % of control | [16] 93 % of control

CCCCCC(Cn1ccnc1)c1c(Cl)cccc1Cl (stereo not drawn)
inactive: dose: 25.0 mg/kg/injection, schedule: Q04DX003 (ip), vehicle: saline 103 % of control | dose: 50.0 mg/kg/injection, schedule: Q04DX003 (ip), vehicle: saline 100 % of control | dose: 100.0 mg/kg/injection, schedule: Q04DX003 (ip), vehicle: saline 91 % of control

From PubChem BioAssay AID330 (DTP/NCI, 2004)
